Test results as given in US12594277B2, “Macrocyclic ULK1/2 inhibitors” (SALK INSTITUTE FOR BIOLOGICAL STUDIES, priority 2020, dated 2026).

Key:
[1] = biological target: T1, recombinant human ULK1 protein (1-649) (Homo sapiens, UniProt O75385); assay: ULK1 inhibition assay (ADP-Glo); type: biochemical; details: 2 ug/mL ULK1, 80 ug/mL myelin basic protein, 25 uM ATP, assessed after one hour
T1 construct: recombinant human ULK1 protein (1-649, SignalChem #U01-11G); purchased SignalChem U01-11G
T1 sequence (O75385 1-649): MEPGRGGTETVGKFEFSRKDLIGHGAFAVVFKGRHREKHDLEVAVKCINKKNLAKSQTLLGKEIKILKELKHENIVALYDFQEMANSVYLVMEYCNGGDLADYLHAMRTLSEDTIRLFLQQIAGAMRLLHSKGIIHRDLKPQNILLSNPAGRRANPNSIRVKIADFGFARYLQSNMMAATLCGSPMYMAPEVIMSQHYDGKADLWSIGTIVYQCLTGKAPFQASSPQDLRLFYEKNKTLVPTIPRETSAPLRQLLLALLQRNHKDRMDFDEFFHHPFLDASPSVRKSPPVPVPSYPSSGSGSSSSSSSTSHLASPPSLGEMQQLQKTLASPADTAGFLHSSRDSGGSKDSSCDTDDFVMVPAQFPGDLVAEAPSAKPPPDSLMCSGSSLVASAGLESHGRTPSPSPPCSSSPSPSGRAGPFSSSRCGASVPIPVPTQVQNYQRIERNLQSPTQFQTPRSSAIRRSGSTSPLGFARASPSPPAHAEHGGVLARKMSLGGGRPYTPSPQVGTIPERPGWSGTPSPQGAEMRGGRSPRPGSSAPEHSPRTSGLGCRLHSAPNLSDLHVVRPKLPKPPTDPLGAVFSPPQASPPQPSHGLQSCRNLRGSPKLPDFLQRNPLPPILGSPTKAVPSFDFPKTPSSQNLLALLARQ
Protocol: IC50s measured by ADP-Glo assay are represented nM, with A representing IC50<20 nM, B representing IC50>20 nM. NT indicates the compound was not tested. ULK1 inhibition assays were performed in a 5 uL reaction volume containing 2 ug/mL recombinant human ULK1 protein (1-649, SignalChem #U01-11G) and 80 ug/mL myelin basic protein (MBP, Sigma-Aldrich #M1891) in the presence of 25 uM ATP (Sigma-Aldrich A7699). ULK 1 inhibition was assessed after one hour. Compounds were tested in triplicate in a 16-dose IC50 mode with 3-fold serial dilution and a starting dose of 30 uM. Staurosporine, a non-selective protein kinase inhibitor, was used in the assay as a positive control. Three separate experiments were carried out.

[2] = biological target: T2, NanoLuc-ULK1 fusion in HEK293T cells (Homo sapiens, UniProt O75385); assay: ULK1 NanoBRET assay; type: cell-based; details: HEK293T transfected with NanoLuc-ULK1 Fusion Vector, Tracer K-5, 2 h incubation
T2 construct: host or cells: HEK293T
T2 sequence (O75385 1-1050): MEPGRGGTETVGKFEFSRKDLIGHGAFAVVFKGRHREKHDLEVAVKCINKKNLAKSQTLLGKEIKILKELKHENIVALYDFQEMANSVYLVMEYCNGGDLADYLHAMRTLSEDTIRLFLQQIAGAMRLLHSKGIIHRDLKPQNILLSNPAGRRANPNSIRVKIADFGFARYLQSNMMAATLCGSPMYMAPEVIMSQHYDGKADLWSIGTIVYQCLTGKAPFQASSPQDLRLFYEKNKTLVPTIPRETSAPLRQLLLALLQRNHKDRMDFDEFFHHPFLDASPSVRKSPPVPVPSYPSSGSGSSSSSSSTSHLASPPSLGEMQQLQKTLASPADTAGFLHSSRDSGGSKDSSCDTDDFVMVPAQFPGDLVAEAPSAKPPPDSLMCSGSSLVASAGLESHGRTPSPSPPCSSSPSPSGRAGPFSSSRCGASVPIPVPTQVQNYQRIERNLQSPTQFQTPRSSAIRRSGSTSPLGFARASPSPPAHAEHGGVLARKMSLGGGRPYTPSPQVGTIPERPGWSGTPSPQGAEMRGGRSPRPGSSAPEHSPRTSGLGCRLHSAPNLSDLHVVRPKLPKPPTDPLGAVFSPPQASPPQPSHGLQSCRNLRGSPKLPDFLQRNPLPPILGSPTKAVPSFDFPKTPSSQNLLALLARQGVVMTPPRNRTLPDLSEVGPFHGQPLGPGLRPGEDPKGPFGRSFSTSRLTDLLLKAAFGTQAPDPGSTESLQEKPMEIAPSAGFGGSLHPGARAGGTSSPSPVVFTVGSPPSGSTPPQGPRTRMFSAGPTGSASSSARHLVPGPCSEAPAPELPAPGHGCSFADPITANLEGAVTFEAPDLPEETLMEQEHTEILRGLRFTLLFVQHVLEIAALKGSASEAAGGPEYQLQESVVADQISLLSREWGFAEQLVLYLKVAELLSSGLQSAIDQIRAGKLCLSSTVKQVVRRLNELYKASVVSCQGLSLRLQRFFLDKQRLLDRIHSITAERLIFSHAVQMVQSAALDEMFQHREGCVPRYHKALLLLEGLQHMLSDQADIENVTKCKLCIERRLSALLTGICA
Protocol: IC50s were also measured by ULK1 NanoBRET assay according to the following protocol: Human embryonic kidney cells (HEK293T) were transfected with NanoLuc®-ULK1 Fusion Vector (Promega #NV2211) using jetPRIME transfection reagent (Polyplus Transfection #114-15). Following 24 h, cells were trypsinized and resuspended in Opti-MEM® I (1×), Reduced Serum Medium (Gibco, #11058-021). Approximately, 7,000 cells per well (in 34 μL total volume) were replated into non-binding surface 384 well plates. Complete NanoBRET 20× Tracer K-5 reagent was prepared according to the manufacturer's directions and 2 μL were added to each well of the 384 plate (assay plate). The assay plate was mixed on an orbital shaker for 15 seconds at 700 rpm. Compounds were serially diluted at 200× final concentration in […], then diluted to 10× final concentration in assay media (Opti-MEM® I, Reduced Serum Medium). Next, 4 μL 10× test compounds were added to each well of the assay plate, followed by mixing at 700 rpm for 15 seconds. The assay plate was incubated for 2 h in a 37 C incubator with […] and then equilibrated to RT for 15 min. The 3× Complete Substrate plus Inhibitor Solution was prepared according to the manufacturer's directions with a concentration of Extracellular NanoLuc® Inhibitor of 60 μM to be used at a working concentration of 20 μM. The 3× Complete Substrate plus Inhibitor Solution was mixed and 20 μL per well was added to the assay plate and incubated at RT for 2-3 min. Donor emission wavelength (450 nm) and acceptor emission wavelength (610 nm) were measured using an assay compatible luminometer (see manufacturer's specifications).

Compound | IC50 [1] [nM] | IC50 [2] [nM]
CNC(=O)c1ccc2cc1OCCCCCOc1ccc(cc1OC)Nc1ncc(C(F)(F)F)c(n1)N2 [Compound 25, 5^3-Methoxy-N-methyl-3^5-(trifluoromethyl)-6,12-dioxa-2,4-diaza-3(4,2)-pyrimidina-1(1,3), 5(1,4)-dibenzenacyclododecaphane-1^6-carboxamide] | > 20 | > 1000
CNC(=O)c1ccc2cc1Nc1nc(ncc1C(F)(F)F)Nc1ccc(OC)c(c1)OCCCCCO2 [Compound 23, 1^4-methoxy-N-methyl-3^5-(trifluoromethyl)-6,12-dioxa-2,4-diaza-3(2,4)-pyrimidina-1,5(1,3)-dibenzenacyclododecaphane-5^6-carboxamide] | > 20 | > 1000
CNC(=O)c1cc2ccc1Nc1nc(ncc1C(F)(F)F)Nc1ccc(OC)c(c1)OCCCCCCO2 [Compound 20, 1^4-Methoxy-N-methyl-3^5-(trifluoromethyl)-6,13-dioxa-2,4-diaza-3(2,4)-pyrimidina-1(1,3),5 (1,4)-dibenzenacyclotridecaphane-52-carboxamide] | < 20 | > 1000
CNC(=O)c1ccc2cc1Nc1nc(ncc1C(F)(F)F)Nc1ccc(c(OC)c1)OCCCCCCO2 [Compound 17, 5^3-Methoxy-N-methyl-3^5-(trifluoromethyl)-6,13-dioxa-2,4-diaza-3(4,2)-pyrimidina-1(1,3),5 (1,4)-dibenzenacyclotridecaphane-16-carboxamide] | > 20 | > 1000
CNC(=O)c1cc2ccc1Nc1nc(ncc1C(F)(F)F)Nc1ccc(OC)c(c1)OC/C=C\CCCO2 [Compound 19, (Z)-1^4-methoxy-N-methyl-3^5-(trifluoromethyl)-6,13-dioxa-2,4-diaza-3(2,4)-pyrimidina-1(1,3),5(1,4)-dibenzenacyclotridecaphan-10-ene-5^2-carboxamide] | < 20 | < 1000
C=CCCCOc1ccc(Nc2nc(Nc3ccc(OCC=C)c(OC)c3)ncc2C(F)(F)F)c(C(=O)NC)c1 [Compound 5, 2-((2-((4-(Allyloxy)-3-methoxyphenyl)amino)-5-(trifluoromethyl)pyrimidin-4-yl)amino)-N-methyl-5-(pent-4-en-1-yloxy)benzamide] | > 20 | > 1000
CNC(=O)c1ccc2cc1Nc1nc(ncc1C(F)(F)F)Nc1ccc(OC)c(c1)OCCCCCCO2 [Compound 14, 1^4-Methoxy-N-methyl-3^5-(trifluoromethyl)-6,13-dioxa-2,4-diaza-3(2,4)-pyrimidina-1,5(1,3)-dibenzenacyclotridecaphane-5^6-carboxamide] | > 20 | > 1000

Now from value to compound:

IC50 [1] [nM] | IC50 [2] [nM] | Compound
> 20 | < 1000 | CNC(=O)c1cc2ccc1Nc1nc(ncc1C(F)(F)F)Nc1ccc(c(OC)c1)OC/C=C/CCO2 [Compound 3, (E)-1^3-methoxy-N-methyl-3^5-(trifluoromethyl)-6,12-dioxa-2,4-diaza-3(2,4)-pyrimidina-1,5(1,4)-dibenzenacyclododecaphan-9-ene-5^2-carboxamide]
> 20 | > 1000 | CNC(=O)c1ccc2cc1Nc1nc(ncc1C(F)(F)F)Nc1ccc(OC)c(c1)OC/C=C/CCCO2 [Compound 13, (Z)-1^4-methoxy-N-methyl-35-(trifluoromethyl)-6,13-dioxa-2,4-diaza-3(2,4)-pyrimidina-1,5(1,3)-dibenzenacyclotridecaphan-10-ene-5^6-carboxamide]
> 20 | > 1000 | CNC(=O)c1ccc2cc1Nc1nc(ncc1C(F)(F)F)Nc1ccc(OC)c(c1)OC/C=C\CCO2 [Compound 21, (E)-1^4-methoxy-N-methyl-3^5-(trifluoromethyl)-6,12-dioxa-2,4-diaza-3(2,4)-pyrimidina-1,5(1,3)-dibenzenacyclododecaphan-9-ene-5^6-carboxamide]
> 20 | < 1000 | CNC(=O)c1cc2ccc1Nc1nc(ncc1C(F)(F)F)Nc1ccc(c(OC)c1)OC/C=C\CCO2 [Compound 4, (Z)-1^3-methoxy-N-methyl-3^5-(trifluoromethyl)-6,12-dioxa-2,4-diaza-3(2,4)-pyrimidina-1,5(1,4)-dibenzenacyclododecaphan-9-ene-5^2-carboxamide]
> 20 | > 1000 | CNC(=O)c1ccc2cc1Nc1nc(ncc1C(F)(F)F)Nc1ccc(c(OC)c1)OC/C=C/CCCO2 [Compound 15, (E)-5^3-methoxy-N-methyl-3^5-(trifluoromethyl)-6,13-dioxa-2,4-diaza-3(4,2)-pyrimidina-1(1,3),5(1,4)-dibenzenacyclotridecaphan-8-ene-1^6-carboxamide]
> 20 | > 1000 | CNC(=O)c1ccc2cc1Nc1nc(ncc1C(F)(F)F)Nc1ccc(c(OC)c1)OC/C=C/CCO2 [Compound 24, (E/Z)-5^3-Methoxy-N-methyl-3^5-(trifluoromethyl)-6,12-dioxa-2,4-diaza-3(4,2)-pyrimidina-1(1,3),5(1,4)-dibenzenacyclododecaphan-8-ene-1^6-carboxamide]
> 20 | > 1000 | CNC(=O)c1ccc2cc1Nc1nc(ncc1C(F)(F)F)Nc1ccc(OC)c(c1)OC/C=C/CCO2 [Compound 22, (Z)-1^4-methoxy-N-methyl-3^5-(trifluoromethyl)-6,12-dioxa-2,4-diaza-3(2,4)-pyrimidina-1,5(1,3)-dibenzenacyclododecaphan-9-ene-5^6-carboxamide]
> 20 | > 1000 | CNC(=O)c1ccc2cc1Nc1nc(ncc1C(F)(F)F)Nc1ccc(c(OC)c1)OC/C=C\CCCO2 [Compound 16, (Z)-5^3-methoxy-N-methyl-3^5-(trifluoromethyl)-6,13-dioxa-2,4-diaza-3(4,2)-pyrimidina-1(1,3),5(1,4)-dibenzenacyclotridecaphan-8-ene-1^6-carboxamide]
